From patent US10941158B2, “Pyrazole ACC inhibitors and uses thereof” (Gilead Apollo, LLC, priority 2015, dated 2021)
Converted amounts (≈) assume the structure as drawn. Read-outs that look alike come from different tables or passages of the source.

Experiments:
C. albicans ATCC 90028 = assay: Anti-Fungal (Candida) Activity Assay, broth microtiter MIC; type: cell-based; conditions: read-out: MIC C. albicans ATCC 90028
In short: (§1)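 In CLSI M27-A3 microtiter plates, yeast from overnight agar culture is inoculated in RPMI 1640–MOPS at a standard-curve density. The MIC is the endpoint scored visually against growth control at 48 h.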

C. krusei ATCC 6258 = assay: as above; type: cell-based; conditions: Pichia kudriavzevii, read-out: MIC C. krusei ATCC 6258
In short: as §1

[1] = system: C. parapsilosis ATCC 22019; assay: as above; type: cell-based; conditions: Lodderomyces parapsilosis, read-out: MIC C. parapsilosis ATCC 22019
In short: as §1

[2] = system: Phytophthora capsici (Pc); assay: Growth inhibition assay of fungal pathogens; type: cell-based; conditions: for IC90: Phytophthora capsici, read-out: Concentration at 90% Inhibition Pc
In short: (§2)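 Percent growth inhibition was derived from 48 h OD600 and visual scores relative to 2% DMSO, with blank background subtraction. Fungi were grown from spores in 17% V8 liquid medium, R. solani from 1.5 mm plugs in ¼ PDB, with compound at final 50/10/2 or 2/0.4/0.08 ppm.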

[3] = system: Collectotrichum graminicola (Cg); assay: Growth inhibition assay of fungal pathogens; type: cell-based; conditions: 48 h, read-out: Concentration at 90% Inhibition Cg
In short: as §2

[4] = system: Fusarium moniliforme (Fm); assay: Growth inhibition assay of fungal pathogens; type: cell-based; conditions: for IC90: Fusarium verticillioides, 48 h, read-out: Concentration at 90% Inhibition Fm
In short: (§3)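 OD600 (blank-subtracted) plus visual scoring at 48 h, vs 2% DMSO ctrl → % inhibition. Final cpd 50/10/2 or 2/0.4/0.08 ppm. Fm/Bc/Dm spores in 17% V8 broth; Rs as 1.5 mm plugs in ¼ PDB.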

[5] = system: Fusarium virguliforme (Fv); assay: Growth inhibition assay of fungal pathogens; type: cell-based; conditions: 48 h
In short: as §2

Septoria tritici (St) = assay: Growth inhibition assay of fungal pathogens; type: cell-based; conditions: for IC90: Zymoseptoria tritici, read-out: Concentration at 90% Inhibition St
In short: as §2

Rhizoctonia solani (Rs) = assay: Growth inhibition assay of fungal pathogens; type: cell-based; conditions: 48 h, read-out: Concentration at 90% Inhibition Rs
In short: as §3

Botrtyis cinerea (Bc) = assay: Growth inhibition assay of fungal pathogens; type: cell-based; conditions: 48 h, read-out: Concentration at 90% Inhibition Bc
In short: as §3

Diplodia maydis (Dm) = assay: Growth inhibition assay of fungal pathogens; type: cell-based; conditions: Stenocarpella maydis, 48 h, read-out: Concentration at 90% Inhibition Dm
In short: as §3

fungal (fACC2) ACC2 = fungal (fACC2) ACC2 (UniProt Q00955); conditions: read-out: fACC2 IC50; fungal ACC2, ADP-Glo
fungal (fACC2) ACC2, sequence (Q00955 whole entry): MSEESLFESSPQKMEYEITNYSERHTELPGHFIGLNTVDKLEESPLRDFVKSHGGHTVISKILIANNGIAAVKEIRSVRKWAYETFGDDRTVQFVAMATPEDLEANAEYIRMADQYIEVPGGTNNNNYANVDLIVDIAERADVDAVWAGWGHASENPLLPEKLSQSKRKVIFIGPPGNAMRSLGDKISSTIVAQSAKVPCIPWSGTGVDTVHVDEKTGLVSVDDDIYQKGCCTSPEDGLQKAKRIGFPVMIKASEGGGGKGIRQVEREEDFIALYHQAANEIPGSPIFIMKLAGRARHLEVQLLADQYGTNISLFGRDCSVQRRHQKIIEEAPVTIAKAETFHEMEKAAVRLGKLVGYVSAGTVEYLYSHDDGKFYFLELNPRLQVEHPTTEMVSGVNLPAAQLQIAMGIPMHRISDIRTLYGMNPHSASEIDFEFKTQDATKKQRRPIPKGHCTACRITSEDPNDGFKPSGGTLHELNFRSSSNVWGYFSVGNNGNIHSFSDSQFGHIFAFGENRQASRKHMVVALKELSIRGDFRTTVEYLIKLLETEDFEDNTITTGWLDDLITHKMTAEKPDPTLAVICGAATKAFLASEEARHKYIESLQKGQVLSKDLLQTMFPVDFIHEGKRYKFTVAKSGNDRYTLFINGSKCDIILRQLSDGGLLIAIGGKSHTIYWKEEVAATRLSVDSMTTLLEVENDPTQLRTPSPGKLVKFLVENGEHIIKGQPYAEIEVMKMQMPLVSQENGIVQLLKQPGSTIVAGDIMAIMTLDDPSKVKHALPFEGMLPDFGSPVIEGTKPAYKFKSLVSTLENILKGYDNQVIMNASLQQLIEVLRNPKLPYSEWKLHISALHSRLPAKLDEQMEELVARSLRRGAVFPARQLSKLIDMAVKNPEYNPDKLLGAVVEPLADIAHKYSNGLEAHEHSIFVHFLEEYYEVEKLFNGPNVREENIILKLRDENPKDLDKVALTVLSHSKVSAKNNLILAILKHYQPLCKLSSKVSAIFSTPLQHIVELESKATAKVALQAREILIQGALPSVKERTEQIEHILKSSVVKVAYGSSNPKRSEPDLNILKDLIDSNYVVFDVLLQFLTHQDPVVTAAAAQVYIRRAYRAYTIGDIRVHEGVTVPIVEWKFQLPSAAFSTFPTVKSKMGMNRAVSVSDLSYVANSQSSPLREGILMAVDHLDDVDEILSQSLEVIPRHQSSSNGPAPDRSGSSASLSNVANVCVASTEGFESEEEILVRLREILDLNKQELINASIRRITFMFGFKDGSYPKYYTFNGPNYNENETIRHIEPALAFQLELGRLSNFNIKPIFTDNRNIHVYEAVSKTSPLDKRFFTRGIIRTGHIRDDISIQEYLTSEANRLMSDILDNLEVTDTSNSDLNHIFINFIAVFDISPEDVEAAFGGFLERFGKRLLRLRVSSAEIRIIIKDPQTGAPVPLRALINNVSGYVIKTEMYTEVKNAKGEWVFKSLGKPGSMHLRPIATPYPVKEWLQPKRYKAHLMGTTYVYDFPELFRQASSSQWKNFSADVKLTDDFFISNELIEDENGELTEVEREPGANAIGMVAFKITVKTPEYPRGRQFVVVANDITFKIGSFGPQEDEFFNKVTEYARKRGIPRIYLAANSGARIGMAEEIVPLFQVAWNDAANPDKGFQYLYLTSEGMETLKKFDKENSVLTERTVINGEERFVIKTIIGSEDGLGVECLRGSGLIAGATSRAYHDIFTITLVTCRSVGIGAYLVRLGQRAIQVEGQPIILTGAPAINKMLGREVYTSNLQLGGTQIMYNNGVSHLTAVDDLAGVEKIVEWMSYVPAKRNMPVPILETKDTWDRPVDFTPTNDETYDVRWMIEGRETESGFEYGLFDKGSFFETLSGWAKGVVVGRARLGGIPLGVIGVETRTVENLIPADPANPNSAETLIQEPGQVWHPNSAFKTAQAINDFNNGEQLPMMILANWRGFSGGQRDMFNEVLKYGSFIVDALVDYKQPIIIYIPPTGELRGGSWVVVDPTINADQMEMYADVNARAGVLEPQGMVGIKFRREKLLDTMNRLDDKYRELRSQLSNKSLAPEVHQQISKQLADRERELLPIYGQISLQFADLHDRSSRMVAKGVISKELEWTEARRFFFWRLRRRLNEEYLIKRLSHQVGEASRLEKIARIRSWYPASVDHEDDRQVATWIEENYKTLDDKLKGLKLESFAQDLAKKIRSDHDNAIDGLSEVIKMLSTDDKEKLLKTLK
Description: An exemplary procedure for the in vitro ACC inhibition assay, which can be used to determine the inhibitory action of compounds of the invention toward either human (hACC2) or fungal (fACC2) ACC2, follows. The ADP-Glo™ Kinase Assay kit from Promega was used. The ADP-Glo™ Kinase Assay is a luminescent ADP detection assay to measure enzymatic activity by quantifying the amount of ADP produced during an enzyme reaction. The assay is performed in two steps; first, after the enzyme reaction, an equal volume of ADP-Glo™ Reagent is added to terminate the reaction and deplete the remaining ATP. Second, the Kinase Detection Reagent is added to simultaneously convert ADP to ATP and allow the newly synthesized ATP to be measured using a luciferase/luciferin reaction. Luminescence can be correlated to ADP concentrations by using an ATP-to-ADP conversion curve. The detailed procedure is as follows. 50 μL of the compound being tested (600 μM in DMSO) was added to a 384-well dilution plate. The compound was diluted 1:3 in succession in DMSO for each row for 11 wells. 0.5 μL ACC2 working solution was added to 384-well white Optiplate assay plate. 0.5 μL diluted compound solution in each column from step 2 was added to assay plate, each row containing 2 replicates. […] The plates were incubated at room temperature for 15 minutes. 5 μL substrate working solution was added to each well to initiate reaction. Final ACC2 reaction concentrations consist of: 5 nM ACC2, 20 μM ATP, 20 μM acetyl-CoA, 12 mM NaHCO3, 0.01% Brij35, 2 mM DTT, 5% DMSO, test compound concentrations: 30 μM, 10 μM, 3.33 μM, 1.11 μM, 0.37 μM, 0.123 μM, 0.0411 μM, 0.0137 μM, 0.00457 μM, 0.00152 μM, and 0.00051 μM. Plates were incubated at room temperature for 60 minutes. 10 μL ADP glo reagent was added. Plates were incubated at room temperature for 40 minutes. 20 μL kinase detection reagent was added. Plates were incubated at room temperature for 40 minutes, and then read on a Perkin Elmer EnVision 2104 plate reader for luminescence as Relative Light Units (RLU).
Data for each concentration, as well as the positive and negative controls were averaged, and the standard deviation calculated. Percent inhibition was calculated by the formula: 100×(average negative control−compound)/(average negative control−average positive control). The IC50 for each compound was calculated by fitting the data with a non-linear regression equation: Y=Bottom+(Top-Bottom)/(1+10^((Log IC50−X)*Hill Slope)), where X is the log of compound concentration and Y is percent inhibition.
Compounds having an activity designated as “AA” provided an IC50 0.0006-0.003 μM; provided an “A” provided an IC50 0.003-0.01 μM; compounds having an activity designated as “B” provided an IC50 0.01-0.04 μM; and compounds having an activity designated as “C” provided an IC50>0.04 μM IC50. “NA” stands for “not assayed.”

human (hACC2) ACC2 = human (hACC2) ACC2 (Homo sapiens, UniProt O00763); assay: In vitro Acetyl-CoA Carboxylase (ACC) inhibition assay (ADP-Glo), hACC2; type: biochemical
human (hACC2) ACC2, sequence (O00763 whole entry): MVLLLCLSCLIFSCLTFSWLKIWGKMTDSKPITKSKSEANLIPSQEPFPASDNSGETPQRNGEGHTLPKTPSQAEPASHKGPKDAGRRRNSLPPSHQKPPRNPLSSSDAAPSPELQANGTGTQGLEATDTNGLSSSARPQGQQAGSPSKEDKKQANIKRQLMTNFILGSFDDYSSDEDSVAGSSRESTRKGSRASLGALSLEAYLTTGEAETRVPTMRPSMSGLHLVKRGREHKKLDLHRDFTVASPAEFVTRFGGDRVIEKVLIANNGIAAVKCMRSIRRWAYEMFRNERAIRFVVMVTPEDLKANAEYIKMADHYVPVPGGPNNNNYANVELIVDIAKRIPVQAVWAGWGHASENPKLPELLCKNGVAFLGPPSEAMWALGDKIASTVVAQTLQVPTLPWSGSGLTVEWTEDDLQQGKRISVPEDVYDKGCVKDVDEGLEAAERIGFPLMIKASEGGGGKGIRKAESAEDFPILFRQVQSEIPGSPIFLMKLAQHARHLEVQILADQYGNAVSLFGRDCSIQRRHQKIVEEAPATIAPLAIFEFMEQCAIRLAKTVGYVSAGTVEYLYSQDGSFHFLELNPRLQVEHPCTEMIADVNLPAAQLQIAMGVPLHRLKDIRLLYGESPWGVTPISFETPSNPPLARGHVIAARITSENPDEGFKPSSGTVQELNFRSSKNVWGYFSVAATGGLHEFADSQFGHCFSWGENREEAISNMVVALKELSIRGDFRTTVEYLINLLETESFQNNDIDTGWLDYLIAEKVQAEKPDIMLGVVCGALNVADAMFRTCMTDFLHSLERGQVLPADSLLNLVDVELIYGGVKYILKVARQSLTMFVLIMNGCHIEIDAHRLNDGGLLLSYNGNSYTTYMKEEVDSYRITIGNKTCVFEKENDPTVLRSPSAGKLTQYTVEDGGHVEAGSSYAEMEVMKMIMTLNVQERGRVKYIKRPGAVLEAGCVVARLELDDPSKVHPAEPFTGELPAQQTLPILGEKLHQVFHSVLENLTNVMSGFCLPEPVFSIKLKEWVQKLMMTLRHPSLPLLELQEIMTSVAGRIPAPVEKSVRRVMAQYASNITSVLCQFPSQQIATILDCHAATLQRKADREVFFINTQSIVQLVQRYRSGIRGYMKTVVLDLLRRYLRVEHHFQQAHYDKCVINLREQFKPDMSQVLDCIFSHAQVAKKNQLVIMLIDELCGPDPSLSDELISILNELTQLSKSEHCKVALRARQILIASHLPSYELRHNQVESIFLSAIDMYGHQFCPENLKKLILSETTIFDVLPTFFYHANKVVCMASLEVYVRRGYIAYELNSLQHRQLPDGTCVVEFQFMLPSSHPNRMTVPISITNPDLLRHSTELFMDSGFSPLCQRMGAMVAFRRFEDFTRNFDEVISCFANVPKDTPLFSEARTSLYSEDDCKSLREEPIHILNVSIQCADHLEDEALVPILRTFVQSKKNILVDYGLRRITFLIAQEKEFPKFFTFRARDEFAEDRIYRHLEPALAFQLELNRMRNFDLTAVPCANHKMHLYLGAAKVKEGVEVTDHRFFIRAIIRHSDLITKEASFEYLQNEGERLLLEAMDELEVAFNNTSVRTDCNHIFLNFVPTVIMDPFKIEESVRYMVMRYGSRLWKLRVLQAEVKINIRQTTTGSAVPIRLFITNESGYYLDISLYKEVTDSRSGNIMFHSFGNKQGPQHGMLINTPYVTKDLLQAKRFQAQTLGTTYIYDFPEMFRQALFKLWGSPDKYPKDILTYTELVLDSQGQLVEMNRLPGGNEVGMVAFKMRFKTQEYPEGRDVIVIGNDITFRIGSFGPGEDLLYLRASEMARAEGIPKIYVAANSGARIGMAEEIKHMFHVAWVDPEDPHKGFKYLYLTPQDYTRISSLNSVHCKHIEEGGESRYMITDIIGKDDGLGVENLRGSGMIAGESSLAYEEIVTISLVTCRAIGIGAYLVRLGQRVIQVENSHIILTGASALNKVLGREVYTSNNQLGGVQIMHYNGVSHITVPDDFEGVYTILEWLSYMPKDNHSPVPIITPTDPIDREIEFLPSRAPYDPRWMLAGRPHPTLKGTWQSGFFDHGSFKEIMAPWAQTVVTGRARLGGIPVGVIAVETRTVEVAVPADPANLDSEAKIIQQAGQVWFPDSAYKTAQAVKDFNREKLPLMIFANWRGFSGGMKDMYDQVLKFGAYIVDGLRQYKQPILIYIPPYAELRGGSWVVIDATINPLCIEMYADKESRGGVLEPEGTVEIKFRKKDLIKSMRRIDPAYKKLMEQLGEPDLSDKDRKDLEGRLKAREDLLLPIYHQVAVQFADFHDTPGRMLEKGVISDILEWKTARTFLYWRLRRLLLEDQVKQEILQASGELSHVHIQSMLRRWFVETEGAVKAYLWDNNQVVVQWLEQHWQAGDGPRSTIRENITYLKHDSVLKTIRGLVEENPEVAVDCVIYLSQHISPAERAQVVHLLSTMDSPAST
Description: The detailed procedure is as follows. […] 10 μL ADP glo reagent was added. […] 20 μL kinase detection reagent was added.
“NA” stands for “not assayed.”

[6] = ATCC90028, 3 replicates, MIC recorded at 48 h
[7] = ATCC6258, 3 replicates, MIC recorded at 48 h
[8] = ATCC22019, 3 replicates, MIC recorded at 48 h
[9] = Table 4a, 48 hours, read-out: Concentration at 90% Inhibition Fv
[10] = Table 4b, 48 hours, read-out: Concentration at 90% Inhibition Fv

Structure (SMILES) | MIC (C. albicans ATCC 90028; [6]) [µg/mL] | MIC (C. krusei ATCC 6258; [7]) [µg/mL] | MIC [1, 8] [µg/mL] | IC90 ([2]; Table 4a, 48 hours) [µg/mL] | Concentration at 90% Inhibition Pc ([2]; Table 4b, 48 hours) | IC90 ([3]; Table 4a) [µg/mL] | IC90 ([3]; Table 4b) [µg/mL] | IC90 ([4]; Table 4a, 48 hours) [µg/mL] | IC90 [5, 9] [µg/mL] | IC90 [5, 10] [µg/mL] | Concentration at 90% Inhibition St (Septoria tritici (St); Table 4b, 48 hours) | IC90 (Septoria tritici (St); Table 4a, 48 hours) [µg/mL] | IC90 (Rhizoctonia solani (Rs); Table 4a) [µg/mL] | IC90 (Rhizoctonia solani (Rs); Table 4b) [µg/mL] | IC90 (Botrtyis cinerea (Bc); Table 4a) [µg/mL] | IC90 (Botrtyis cinerea (Bc); Table 4b) [µg/mL] | IC90 (Diplodia maydis (Dm); Table 4a) [µg/mL] | IC90 (Diplodia maydis (Dm); Table 4b) [µg/mL] | IC50 (fungal (fACC2) ACC2) [nM] | IC50 (human (hACC2) ACC2) [nM] | further results
COc1ccccc1[C@H](Cn1c(=O)n(C(C)(C)C(=O)N2CCCC2)c(=O)c2c(C)c(-n3cccn3)sc21)OC(C)C [Compound I-18, (R)-1-(2-isopropoxy-2-(2-methoxyphenyl)ethyl)-5-methyl-3-(2-methyl-1-oxo-2-(pyrrolidin-1-yl)propan-2-yl)-6-(H-pyrazol-1-yl)thieno[2,3-d]pyrimidine-2,4(1H,3H)-dione] | 1.1 to 2 (≈ 1.9 to 3.45 µM) | 2.1 to 4 (≈ 3.62 to 6.9 µM) | 2.1 to 4 (≈ 3.62 to 6.9 µM) | > 50 | D (“D” provided a compound concentration of >50 ppm at 90% inhibition of fungal pathogens) | 2 (≈ 3.45 µM) | 2 (≈ 3.45 µM) | 0.08 (≈ 0.138 µM) | 0.4 (≈ 0.69 µM) | 0.4 (≈ 0.69 µM) | D (“D” provided a compound concentration of >50 ppm at 90% inhibition of fungal pathogens) | > 50 | 0.4 (≈ 0.69 µM) | 0.4 (≈ 0.69 µM) | 2 (≈ 3.45 µM) | 2 (≈ 3.45 µM) | 2 (≈ 3.45 µM) | 2 (≈ 3.45 µM) | 0.6 to 3 | 3 to 10 | IC90 ([4]; Table 4b, 48 hours): 0.08 µg/mL (≈ 0.138 µM)
COc1ccc(F)cc1[C@H](Cn1c(=O)n(C(C)(C)C(=O)N2CCCC2)c(=O)c2c(C)c(-n3cccn3)sc21)OC(C)C [Compound I-24, (R)-1-(2-(5-fluoro-2-methoxyphenyl)-2-isopropoxyethyl)-5-methyl-3-(2-methyl-1-oxo-1-(pyrrolidin-1-yl)propan-2-yl)-6-(1H-pyrazol-1-yl)thieno[2,3-d]pyrimidine-2,4(1H,3H)-dione] | > 4.1 | 2.1 to 4 (≈ 3.51 to 6.69 µM) | > 4.1 | > 50 | D (“D” provided a compound concentration of >50 ppm at 90% inhibition of fungal pathogens) | 0.4 (≈ 0.669 µM) | 0.4 (≈ 0.669 µM) | 0.08 (≈ 0.134 µM) | 0.4 (≈ 0.669 µM) | 0.4 (≈ 0.669 µM) | D (“D” provided a compound concentration of >50 ppm at 90% inhibition of fungal pathogens) | > 50 | 0.4 (≈ 0.669 µM) | 0.4 (≈ 0.669 µM) | 0.4 (≈ 0.669 µM) | 0.4 (≈ 0.669 µM) | 2 (≈ 3.35 µM) | 2 (≈ 3.35 µM) | 0.6 to 3 | 3 to 10 | Concentration at 90% Inhibition Fm ([4]; Table 4b, 48 hours): A A
COc1ccc(F)cc1[C@H](Cn1c(=O)n(C(C)(C)C(=O)NC(C)C)c(=O)c2c(C)c(-n3cccn3)sc21)OC1CCC(=O)CC1 [Compound I-26, (R)-2-(1-(2-(5-fluoro-2-methoxyphenyl)-2-((4-oxocyclo-hexyl)oxy)ethyl)-5-methyl-2,4-dioxo-6-(1H-pyrazol-1-yl)-1,4-dihydro-thieno[2,3-d]pyrimidin-3(2H)-yl)-N-isopropyl-2-methylpropanamide] | – | – | – | – | – | > 50 | 10 (≈ 15.6 µM) | – | – | – | – | – | 2 (≈ 3.13 µM) | 2 (≈ 3.13 µM) | 0.4 (≈ 0.625 µM) | 0.4 (≈ 0.625 µM) | 2 (≈ 3.13 µM) | 2 (≈ 3.13 µM) | 0.6 to 3 | 3 to 10 | MIC (C. albicans ATCC 90028; ATCC90028, 48 h): 1.1 to 2 µg/mL (≈ 1.72 to 3.13 µM); MIC (C. krusei ATCC 6258; ATCC6258, 48 h): 0.25 to 1 µg/mL (≈ 0.391 to 1.56 µM); MIC ([1]; ATCC22019, 48 h): 1.1 to 2 µg/mL (≈ 1.72 to 3.13 µM); IC90 ([2]; 48 h, Table 4a): > 50 µg/mL; IC90 ([2]; 48 h, Table 4b): > 50 µg/mL; IC90 [4]: 0.08 µg/mL (≈ 0.125 µM); Concentration at 90% Inhibition Fm ([4]; Table 4a, 48 hours): A A; IC90 ([5]; read-out: Concentration at 90% Inhibition Fv, Table 4a, 48 hours): 2 µg/mL (≈ 3.13 µM); IC90 ([5]; read-out: Concentration at 90% Inhibition Fv, Table 4b, 48 hours): 2 µg/mL (≈ 3.13 µM); IC90 (Septoria tritici (St); 48 h, Table 4a): > 50 µg/mL; IC90 (Septoria tritici (St); 48 h, Table 4b): > 50 µg/mL
